Data on 1 molecule can be found in doi:10.1101/2020.10.13.334797v1 (biorxiv, 2020).

Assay type in all cases: cell-based
In experiment [1] the target is hTRPV4 (full-length; hTRPV4WT) (Homo sapiens, UniProt Q9HBA0, R594A). Kind of experiment: calcium flux. On the technique in general: Calcium assays in cells follow changes in intracellular calcium, usually with a dye or a luminescent sensor.
Experiment [2] deals with hTRPV4 (full-length; hTRPV4WT) (Homo sapiens, UniProt Q9HBA0, S548V). Description: calcium flux.
The target in experiment [3] is hTRPV4 (full-length; hTRPV4WT) (Homo sapiens, UniProt Q9HBA0, Q550A). Description: calcium flux.
Experiment [4] deals with hTRPV4 (full-length; hTRPV4WT) (Homo sapiens, UniProt Q9HBA0, L584M). Kind of experiment: calcium flux.
Experiment [5] addresses hTRPV4 (full-length; hTRPV4WT) (Homo sapiens, UniProt Q9HBA0, K535A). Kind of experiment: calcium flux.
The target in experiment [6] is hTRPV4 (full-length; hTRPV4WT) (Homo sapiens, UniProt Q9HBA0, F549A). Kind of experiment: calcium flux.
The target of experiment [7] is hTRPV4 (full-length; hTRPV4WT) (Homo sapiens, UniProt Q9HBA0). Kind of experiment: calcium flux.
Experiment [8] addresses hTRPV4 (full-length; hTRPV4WT) (Homo sapiens, UniProt Q9HBA0, Y556A). Description: calcium flux.
Experiment [9] has as its target hTRPV4 (full-length; hTRPV4WT) (Homo sapiens, UniProt Q9HBA0, N474Q). Kind of experiment: calcium flux.
For experiment [10], the target named is hTRPV4 (full-length; hTRPV4WT) (Homo sapiens, UniProt Q9HBA0, N474A). Description: calcium flux.
Experiment [11] addresses truncated hTRPV4 (cryo-EM construct, residues 148-787 N651D) (Homo sapiens, UniProt Q9HBA0, N651D). Kind of experiment: two-electrode voltage clamp, Xenopus oocytes. Background: In two-electrode clamp one electrode senses voltage and the other passes current.

SMILES strings stand for the structures.

In general, EC50 refers to the concentration needed to bring the measured effect to its halfway point.

Sequence of hTRPV4 (full-length; hTRPV4WT) (Homo sapiens, UniProt Q9HBA0, F549A) (Q9HBA0 whole entry F549A): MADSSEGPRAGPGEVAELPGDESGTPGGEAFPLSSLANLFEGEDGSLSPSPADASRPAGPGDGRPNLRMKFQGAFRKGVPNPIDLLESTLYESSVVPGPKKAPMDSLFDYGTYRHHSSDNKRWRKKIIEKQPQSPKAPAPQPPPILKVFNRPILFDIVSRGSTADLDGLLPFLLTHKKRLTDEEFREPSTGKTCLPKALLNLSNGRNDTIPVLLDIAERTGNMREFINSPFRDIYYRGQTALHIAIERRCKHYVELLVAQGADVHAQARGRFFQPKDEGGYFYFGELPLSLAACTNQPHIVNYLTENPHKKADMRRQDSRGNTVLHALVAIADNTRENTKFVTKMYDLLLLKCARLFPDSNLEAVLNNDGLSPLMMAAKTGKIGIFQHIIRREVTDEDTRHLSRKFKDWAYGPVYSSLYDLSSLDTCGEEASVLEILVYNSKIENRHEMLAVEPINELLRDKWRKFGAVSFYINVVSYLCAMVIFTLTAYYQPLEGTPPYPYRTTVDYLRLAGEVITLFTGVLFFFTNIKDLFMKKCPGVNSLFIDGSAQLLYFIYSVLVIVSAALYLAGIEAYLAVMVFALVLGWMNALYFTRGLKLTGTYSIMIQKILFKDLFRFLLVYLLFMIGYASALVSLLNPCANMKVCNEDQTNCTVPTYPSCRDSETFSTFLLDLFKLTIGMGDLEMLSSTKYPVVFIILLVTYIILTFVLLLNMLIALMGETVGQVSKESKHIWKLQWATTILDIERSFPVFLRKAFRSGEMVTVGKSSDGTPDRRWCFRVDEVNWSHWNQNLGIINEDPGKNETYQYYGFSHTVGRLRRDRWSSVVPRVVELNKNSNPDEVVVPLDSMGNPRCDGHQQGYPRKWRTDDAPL
Sequence of hTRPV4 (full-length; hTRPV4WT) (Homo sapiens, UniProt Q9HBA0, Y556A) (Q9HBA0 whole entry Y556A): as the sequence (Q9HBA0 whole entry F549A) above, with A549F, Y556A counted along it
Sequence of hTRPV4 (full-length; hTRPV4WT) (Homo sapiens, UniProt Q9HBA0, Q550A) (Q9HBA0 whole entry Q550A): as the sequence (Q9HBA0 whole entry F549A) above, with A549F, Q550A counted along it
Sequence of hTRPV4 (full-length; hTRPV4WT) (Homo sapiens, UniProt Q9HBA0, N474Q) (Q9HBA0 whole entry N474Q): as the sequence (Q9HBA0 whole entry F549A) above, with N474Q, A549F counted along it
Sequence of truncated hTRPV4 (cryo-EM construct, residues 148-787 N651D) (Q9HBA0 148-787 N651D): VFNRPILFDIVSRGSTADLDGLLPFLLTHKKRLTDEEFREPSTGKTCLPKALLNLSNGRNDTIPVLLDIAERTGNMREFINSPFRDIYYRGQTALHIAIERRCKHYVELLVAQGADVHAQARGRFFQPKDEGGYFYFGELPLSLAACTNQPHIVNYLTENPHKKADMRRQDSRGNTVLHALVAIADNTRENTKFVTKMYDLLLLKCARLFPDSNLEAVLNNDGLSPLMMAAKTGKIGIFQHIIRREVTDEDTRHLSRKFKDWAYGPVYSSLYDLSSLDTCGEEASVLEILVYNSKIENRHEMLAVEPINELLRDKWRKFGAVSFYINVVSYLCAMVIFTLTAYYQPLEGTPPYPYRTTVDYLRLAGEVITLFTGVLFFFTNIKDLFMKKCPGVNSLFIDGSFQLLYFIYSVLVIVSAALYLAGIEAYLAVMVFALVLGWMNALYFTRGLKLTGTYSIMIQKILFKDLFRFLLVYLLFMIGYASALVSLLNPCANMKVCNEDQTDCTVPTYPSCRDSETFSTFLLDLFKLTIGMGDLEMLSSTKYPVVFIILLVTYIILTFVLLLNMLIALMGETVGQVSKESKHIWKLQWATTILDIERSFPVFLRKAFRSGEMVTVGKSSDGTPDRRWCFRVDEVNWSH
Sequence of hTRPV4 (full-length; hTRPV4WT) (Homo sapiens, UniProt Q9HBA0, L584M) (Q9HBA0 whole entry L584M): as the sequence (Q9HBA0 whole entry F549A) above, with A549F, L584M counted along it
Sequence of hTRPV4 (full-length; hTRPV4WT) (Homo sapiens, UniProt Q9HBA0, N474A) (Q9HBA0 whole entry N474A, the tested form may be a part): as the sequence (Q9HBA0 whole entry F549A) above, with N474A, A549F counted along it
Sequence of hTRPV4 (full-length; hTRPV4WT) (Homo sapiens, UniProt Q9HBA0) (Q9HBA0 whole entry): as the sequence (Q9HBA0 whole entry F549A) above, with A549F counted along it
Sequence of hTRPV4 (full-length; hTRPV4WT) (Homo sapiens, UniProt Q9HBA0, K535A) (Q9HBA0 whole entry K535A): as the sequence (Q9HBA0 whole entry F549A) above, with K535A, A549F counted along it
Sequence of hTRPV4 (full-length; hTRPV4WT) (Homo sapiens, UniProt Q9HBA0, R594A) (Q9HBA0 whole entry R594A): as the sequence (Q9HBA0 whole entry F549A) above, with A549F, R594A counted along it
Sequence of hTRPV4 (full-length; hTRPV4WT) (Homo sapiens, UniProt Q9HBA0, S548V) (Q9HBA0 whole entry S548V): as the sequence (Q9HBA0 whole entry F549A) above, with S548V, A549F counted along it

`CC(C)C[C@H](NC(=O)c1cc2ccccc2s1)C(=O)N1CCN(C(=O)[C@H](CO)NS(=O)(=O)c2ccc(Cl)cc2Cl)CC1` [GSK1016790A]: the half-maximal effective concentration (EC50) is over 25000 nM in experiment [1]; 110 ± 18 nM in [2]; 27 ± 13 nM in experiment [3]; 4 ± 1.7 nM in experiment [4]; 7.4 ± 2.9 nM in experiment [5]; 9.8 ± 4.1 nM in [6]. Moreover, the EC50 in [7] was 1.21 ± 0.033 nM; in experiment [8], 9.6 ± 4.3 nM; in experiment [9] it was over 25000 nM; in experiment [10], 540 ± 150 nM; in [11], 8430 nM.
